Measurements from patent US9802901B2, “Antibacterial 2H-indazole derivatives” (priority 2013, dated 2017).
Values after ≈ are worked out from the molar mass of the structure shown.

Tests used:
Assay in all cases: Bacterial growth minimal inhibitory concentration (broth microdilution, CLSI M7-A7)
[1] = tested on: P. aeruginosa ATCC27853; format: cell-based, Pseudomonas aeruginosa; settings: cation-adjusted Mueller-Hinton Broth, microdilution, quinolone-sensitive strain; for MIC: Pseudomonas aeruginosa, ATCC27853, read-out: MIC for P. aeruginosa ATCC27853
Protocol: (§1) Minimal Inhibitory Concentrations (MICs; mg/L) were determined in cation-adjusted Mueller-Hinton Broth by a microdilution method following the description given in “Methods for Dilution Antimicrobial Susceptibility Tests for Bacteria that Grow Aerobically”, Approved standard, 7th ed., Clinical and Laboratory Standards Institute (CLSI) Document M7-A7, Wayne, Pa., USA (2006).
(§2) All Example compounds, except the compound of Example 62, were tested against several Gram-positive and Gram-negative bacteria. […] K. pneumoniae A-651 and Acinetobacter baumannii T6474 are multiply-resistant strains (in particular quinolone-resistant), while E. coli ATCC25922 and P. aeruginosa ATCC27853 are quinolone-sensitive strains.

[2] = tested on: E. coli ATCC25922; format: cell-based, Escherichia coli; settings: cation-adjusted Mueller-Hinton Broth, microdilution, quinolone-sensitive strain; for MIC: Escherichia coli, ATCC25922, read-out: MIC for E. coli ATCC25922
Protocol: as §1, §2

[3] = tested on: K. pneumoniae A-651; format: cell-based, Klebsiella pneumoniae; settings: cation-adjusted Mueller-Hinton Broth, microdilution, multiply-resistant (quinolone-resistant) strain; for MIC: Klebsiella pneumoniae, A651, read-out: MIC for K. Pneumoniae A-651
Protocol: as §1, §2

[4] = tested on: Acinetobacter baumannii T6474; format: cell-based; settings: cation-adjusted Mueller-Hinton Broth, microdilution, multiply-resistant (quinolone-resistant) strain; for MIC: Acinetobacter baumannii, T6474, read-out: MIC for A. Baumannii T6474
Protocol: as §1, §2

Compound | MIC [1] [µg/mL] | MIC [2] [µg/mL] | MIC [3] [µg/mL] | MIC [4] [µg/mL] | MIC for P. aeruginosa ATCC27853 [1] [µg/mL] | MIC for E. coli ATCC25922 [2] [µg/mL] | MIC for K. Pneumoniae A-651 [3] [µg/mL] | MIC for A. Baumannii T6474 [4] [µg/mL]
C[C@@](CCn1cc2cc(C#Cc3ccc(C4(N)COC4)cc3)ccc2n1)(C(=O)NO)S(C)(=O)=O.Cc1ccc(S(=O)(=O)O)cc1 [Example 10, (R)-4-{5-[4-(3-amino-oxetan-3-yl)-phenylethynyl]-indazol-2-yl}-N-hydroxy-2-methylsulfonyl-2-methyl-butanamide toluene-4-sulfonate] | 2 | 0.5 | 0.5 | 2 |  |  |  | 
C[C@@](CCn1cc2cc(C#Cc3ccc(C4(CO)CC4)cc3)ccc2n1)(C(=O)NO)S(C)(=O)=O [Example 16, (R)—N-hydroxy-4-(5-((4-(1-(hydroxymethyl)cyclopropyl)phenyl)ethynyl)-2H-indazol-2-yl)-2-methyl-2-(methylsulfonyl)butanamide] | 1 (≈ 2.08 µM) | 0.125 (≈ 0.26 µM) | 0.125 (≈ 0.26 µM) | 0.5 (≈ 1.04 µM) |  |  |  | 
C[C@@]1(C#CC#Cc2ccc3nn(CC[C@](C)(C(=O)NO)S(C)(=O)=O)cc3c2)C[C@H]1CO [Example 67, (R)—N-hydroxy-4-(5-(((1R,2R)-2-(hydroxymethyl)-1-methylcyclopropyl)buta-1,3-diyn-1-yl)-2H-indazol-2-yl)-2-methyl-2-(methylsulfonyl)butanamide] | 0.25 (≈ 0.564 µM) | 0.125 (≈ 0.282 µM) | 0.125 (≈ 0.282 µM) | 32 (≈ 72.1 µM) |  |  |  | 
C[C@@](CCn1cc2cc(C#CC#CC3CCN(C(=O)CO)CC3)ccc2n1)(C(=O)NO)S(C)(=O)=O [Example 78] |  |  |  |  | 1 | 0.5 | 2 | 4
CN(C)C1(c2ccc(C#Cc3ccc4nn(CC[C@](C)(C(=O)NO)S(C)(=O)=O)cc4c3)cc2)COC1.Cc1ccc(S(=O)(=O)O)cc1 [Example 30, (R)-4-{5-[4-(3-dimethylamino-oxetan-3-yl)-phenylethynyl]-indazol-2-yl}-N-hydroxy-2-methylsulfonyl-2-methyl-butanamide toluene-4-sulfonic acid salt] | 4 | 1 | 2 | 2 |  |  |  | 
CC(C)(N)CC#CC#Cc1ccc2nn(CC[C@](C)(C(=O)NO)S(C)(=O)=O)cc2c1 [Example 82, (R)-4-(5-(6-amino-6-methylhepta-1,3-diyn-1-yl)-2H-indazol-2-yl)-N-hydroxy-2-methyl-2-(methylsulfonyl)butanamide] | 4 (≈ 9.29 µM) | 4 (≈ 9.29 µM) | 8 (≈ 18.6 µM) | > 32 |  |  |  | 
C[C@@](CCn1cc2cc(C#CC#CC3CN(C(=O)CO)C3)ccc2n1)(C(=O)NO)S(C)(=O)=O [Example 81, (R)—N-hydroxy-4-(5-((1-(2-hydroxyacetyl)azetidin-3-yl)buta-1,3-diyn-1-yl)-2H-indazol-2-yl)-2-methyl-2-(methylsulfonyl)butanamide] | 1 (≈ 2.12 µM) | 0.5 (≈ 1.06 µM) | 1 (≈ 2.12 µM) | 4 (≈ 8.47 µM) |  |  |  | 
CC(CCn1cc2cc(-c3ccc(-c4ncco4)cc3)ccc2n1)(C(=O)NO)S(C)(=O)=O.O=CO (racemic) [RE6, (RS)—N-hydroxy-2-methylsulfonyl-2-methyl-4-[5-(4-oxazol-2-yl-phenyl)-indazol-2-yl]-butanamide formic acid salt] | 8 | 0.125 | 0.25 | 4 |  |  |  | 
C[C@@](CCn1cc2cc(C#CC#CC3(O)CCOCC3)ccc2n1)(C(=O)NO)S(C)(=O)=O [Example 15, (R)—N-hydroxy-4-(5-((4-hydroxytetrahydro-2H-pyran-4-yl)buta-1,3-diyn-1-yl)-2H-indazol-2-yl)-2-methyl-2-(methylsulfonyl)butanamide] | 2 (≈ 4.35 µM) | 2 (≈ 4.35 µM) | 2 (≈ 4.35 µM) | > 32 |  |  |  | 
C[C@@](CCn1cc2cc(C#CC#CC3CCN(C(=O)CN)CC3)ccc2n1)(C(=O)NO)S(C)(=O)=O.O=CO [Example 83, (R)-4-(5-((1-glycylpiperidin-4-yl)buta-1,3-diyn-1-yl)-2H-indazol-2-yl)-N-hydroxy-2-methyl-2-(methylsulfonyl)butanamide formate] | 4 | 2 | 8 | 32 |  |  |  | 
C[C@@](CCn1cc2cc(C#Cc3ccc(CN4CCOCC4)cc3)ccc2n1)(C(=O)NO)S(C)(=O)=O.O=CO [Example 7, (R)—N-hydroxy-2-methylsulfonyl-2-methyl-4-[5-(4-morpholin-4-ylmethyl-phenylethynyl)-indazol-2-yl]-butanamide formate] | 2 | 0.25 | 0.125 | 0.5 |  |  |  | 
COc1ccc(-c2cc3cn(CC[C@](C)(C(=O)NO)S(C)(=O)=O)nc3cc2F)cc1 [Example 3, (R)-4-[6-fluoro-5-(4-methoxy-phenyl)-indazol-2-yl]-N-hydroxy-2-methylsulfonyl-2-methyl-butanamide] | 2 (≈ 4.59 µM) | 0.063 (≈ 0.145 µM) | 0.125 (≈ 0.287 µM) | 0.5 (≈ 1.15 µM) |  |  |  | 
(R)-4-(5-(5-amino-5-methylhexa-1,3-diyn-1-yl)-2H-indazol-2-yl)-N-hydroxy-2-methyl-2-(methylsulfonyl)butanamide [Example 24] |  |  |  |  | 0.5 | 0.5 | 1 | >32
COc1ccc(-c2ccc3nn(CC[C@](C)(C(=O)NO)S(C)(=O)=O)cc3c2F)c(F)c1 [Example 6, (R)-4-[4-fluoro-5-(2-fluoro-4-methoxy-phenyl)-indazol-2-yl]-N-hydroxy-2-methylsulfonyl-2-methyl-butanamide] | 4 (≈ 8.82 µM) | 0.125 (≈ 0.276 µM) | 0.5 (≈ 1.1 µM) | 2 (≈ 4.41 µM) |  |  |  | 
C[C@@](CCn1cc2cc(-c3ccc(C#C[C@H]4C[C@@H]4CO)cc3)ccc2n1)(C(=O)NO)S(C)(=O)=O (relative stereo) [Example 60, (R)—N-hydroxy-4-(5-(4-(((1S*,2S*)-2-(hydroxymethyl)cyclopropyl)ethynyl)phenyl)-2H-indazol-2-yl)-2-methyl-2-(methylsulfonyl)butanamide] | 0.5 (≈ 1.04 µM) | ≤ 0.063 | 0.125 (≈ 0.26 µM) | ≤ 0.063 |  |  |  | 
C[C@@](CCn1cc2cc(C#CC#C[C@@H]3C[C@@H](O)[C@@H](O)C3)ccc2n1)(C(=O)NO)S(C)(=O)=O [Example 64, (R)-4-(5-(((1S,3R,4S)-3,4-dihydroxycyclopentyl)buta-1,3-diyn-1-yl)-2H-indazol-2-yl)-N-hydroxy-2-methyl-2-(methylsulfonyl)butanamide] |  |  |  |  | 0.25 | 0.125 | 0.5 | 4
CC(CCn1cc2cc(CCc3ccccc3)ccc2n1)(C(=O)NO)S(C)(=O)=O (racemic) [RE5, (RS)—N-hydroxy-2-methylsulfonyl-2-methyl-4-(5-phenethyl-indazol-2-yl)-butanamide] | 8 (≈ 19.3 µM) | 0.5 (≈ 1.2 µM) | 2 (≈ 4.81 µM) | 0.25 (≈ 0.602 µM) |  |  |  | 
C[C@@](CCn1cc2cc(C#CC#C[C@@H]3C[C@H]3[C@H](O)CO)ccc2n1)(C(=O)NO)S(C)(=O)=O [Example 71, (R)-4-(5-(((1R,2R)-2-((S)-1,2-dihydroxyethyl)cyclopropyl)buta-1,3-diyn-1-yl)-2H-indazol-2-yl)-N-hydroxy-2-methyl-2-(methylsulfonyl)butanamide] | 0.25 (≈ 0.544 µM) | 0.25 (≈ 0.544 µM) | 0.5 (≈ 1.09 µM) | 8 (≈ 17.4 µM) |  |  |  | 
C[C@@](CCn1cc2cc(/C=C/c3ccccc3)ccc2n1)(C(=O)NO)S(C)(=O)=O [Example 17, (R)—N-hydroxy-2-methylsulfonyl-2-methyl-4-[5-((E)-styryl)-indazol-2-yl]-butanamide] | 16 (≈ 38.7 µM) | 0.063 (≈ 0.152 µM) | 0.063 (≈ 0.152 µM) | 1 (≈ 2.42 µM) |  |  |  | 
C[C@@](CCn1cc2cc(C#CC#CC3(O)CSC3)ccc2n1)(C(=O)NO)S(C)(=O)=O [Example 13, (R)—N-hydroxy-4-(5-((3-hydroxythietan-3-yl)buta-1,3-diyn-1-yl)-2H-indazol-2-yl)-2-methyl-2-(methylsulfonyl)butanamide] | 0.5 (≈ 1.12 µM) | 0.125 (≈ 0.279 µM) | 0.25 (≈ 0.559 µM) | 32 (≈ 71.5 µM) |  |  |  | 
C[C@@](CCn1cc2cc(C#CC#C[C@H](O)CO)ccc2n1)(C(=O)NO)S(C)(=O)=O [Example 55, (R)-4-(5-((S)-5,6-dihydroxyhexa-1,3-diyn-1-yl)-2H-indazol-2-yl)-N-hydroxy-2-methyl-2-(methylsulfonyl)butanamide] | 2 (≈ 4.77 µM) | 2 (≈ 4.77 µM) | 4 (≈ 9.54 µM) | > 32 |  |  |  | 
C[C@@](CCn1cc2cc(C#CC#C[C@@H]3CC[C@H](N)CO3)ccc2n1)(C(=O)NO)S(C)(=O)=O (relative stereo) [Example 61, (R)-4-(5-(((2S*,5S*)-5-aminotetrahydro-2H-pyran-2-yl)buta-1,3-diyn-1-yl)-2H-indazol-2-yl)-N-hydroxy-2-methyl-2-(methylsulfonyl)butanamide] | 1 (≈ 2.18 µM) | 2 (≈ 4.36 µM) | 4 (≈ 8.72 µM) | > 8 |  |  |  | 
